Reference: paper PMC12055641, “The Study of Antistaphylococcal Potential of Omiganan and Retro-Omiganan Under Flow Conditions” (Probiotics and Antimicrobial Proteins, 2024)
No end group written: not given here.

Key:
S. aureus ATCC 6538 = details: ATCC 6538, reference strain
[1] = system: human keratinocytes (HaCaT); format: cell-based; details: 24 h
Method: To evaluate the cytotoxicity of the peptides (IC50), the classic MTT assay on 96-well plates was performed for human keratinocytes (HaCaT) which were acquired from the ATCC. The assay utilizes colorimetric determination of the cell metabolic activity, and the color intensity reflects the number of live cells that can be measured spectrophotometrically. […] DMSO was added to the control cells at a final concentration of 1.0% (v/v), which was related to the maximum concentration of the solvent compounds used in the experiment. After 24 h of incubation at 37 °C (humidified 5% CO2 incubator) with the peptides, a medium containing 1 mg/mL of MTT was added to the wells up to a final concentration of 0.5 mg/mL. Subsequently, the plates were incubated at 37 °C for 4 h. Then, the medium was aspirated, and the formazan product was solubilized with DMSO. The background absorbance at 630 nm was subtracted from that at 570 nm for each well (Epoch, BioTek Instruments, USA). Six replicates were conducted for each concentration. All experiments were repeated at least twice and the resulting IC50 values were calculated with GraFit 7 software (v. 7.0, Erithacus, Berkley, CA, USA).

[2] = system: S. aureus clinical strain 005S
Excerpt: (§1) Clinical S. aureus strains were collected from patients with atopic dermatitis during their visits to the Outpatient Clinic and hospitalization in the Department of Dermatology, Venereology and Allergology at Medical University of Gdańsk (following the approval from the ethics committee, Approval Number NKBBN/242–477/2014). Reference strains of S. aureus ATCC 25923, S. aureus ATCC 33591, S. aureus ATCC 9144, and S. aureus ATCC 12598 were obtained from the American Type Culture Collection. All the strains were stored at − 80 °C in Roti®-Store cryo vials (Carl Roth GmbH, Karlsruhe, Germany) and before the tests were transferred into fresh Mueller–Hinton Medium (BioMaxima, Lublin, Poland) and incubated for 24 h at 37 °C. Subsequently, each bacterial inoculum was seeded on Mueller–Hinton agar plates (BioMaxima) and incubated again for 24 h. The cultures prepared in this way were used in further antimicrobial assays. Minimum inhibitory concentrations (MICs) were determined according to the Clinical and Laboratory Standards Institute recommendations. […] The experiments were conducted on 96-well microtiter plates, with a final volume of 100 μL. Additionally, in the case of daptomycin, the medium was supplemented with Ca^2+ (50 mg/L). Cell densities were adjusted spectrophotometrically (Multiskan™ GO Microplate Spectrophotometer, Thermo Scientific) at 600 nm. The MICs were taken as the lowest drug concentration at which a visible growth of the microorganisms was inhibited. Minimum biofilm eliminating concentrations (MBECs) were determined on 96-well flat-bottomed microtiter polystyrene plates with resazurin (7-hydroxy-3H-phenoxazin-3-one 10-oxide sodium salt) as a cell viability reagent. To do this, the plates were filled with 100 μL of the initial inoculums of bacteria (0.5 × 10^7 CFU/mL) in the Mueller–Hinton broth and incubated for 24 h at 37 °C. […] After 24 h of incubation, 20 μL of resazurin (4 mg/mL) was added to each well and the MBEC values were read. Minimum biofilm inhibitory concentrations (MBICs) were also determined on 96-well flat-bottomed microtiter polystyrene plates as described previously. To do this, 50 μL of the compounds in the concentration range, diluted MHB, were prepared. Subsequently, the 50 μL of the staphylococcal inoculums were added to reach the same density of bacteria as that in the MBEC assay. After 24 h of incubation at 37 °C, the wells were rinsed three times with PBS and the fresh medium (100 μL) with resazurin (0.6 mg/mL) was added. Then, after 1 h of incubation, MBICs were read. […] All experiments were conducted in triplicate.

[3] = system: S. aureus ATCC 12598 biofilm; details: ATCC 12598, reference strain
Excerpt: as §1

[4] = system: S. aureus ATCC 33591 (MRSA); details: ATCC 33591, 24 h
Excerpt: as §1

[5] = system: S. aureus clinical strain 004N (MRSA); details: 24 h
Excerpt: as §1

S. aureus ATCC 12598 = details: ATCC 12598, reference strain
Excerpt: as §1

[6] = system: S. aureus clinical strain 009S biofilm
Excerpt: as §1

[7] = system: biofilm of reference and clinical strains of staphylococci (S. aureus); details: for mean MBEC (corrected values) / mean MBEC (initial values) / mean MBIC (corrected values): 24 h; for mean MBIC (initial values): average over 14 strains, polystyrene 96-well plates, not corrected; for mean MBIC (corrected values): biofilm of reference and clinical strains of staphylococci
Excerpt: as §1

[8] = system: S. aureus clinical strain 004N (MRSA) biofilm; details: clinical strain 004N biofilm, 24 h
Excerpt: as §1

[9] = system: S. aureus ATCC 25923 biofilm; details: ATCC 25923, reference strain
Excerpt: as §1

[10] = system: S. aureus clinical strain 015N (MRSA); details: 24 h
Excerpt: as §1

[11] = system: S. aureus ATCC 9144 biofilm; details: ATCC 9144, reference strain
Excerpt: as §1

[12] = system: S. aureus clinical strain 051N (MRSA) biofilm; details: clinical strain 051N biofilm, 24 h
Excerpt: as §1

S. aureus ATCC 9144 = details: ATCC 9144, reference strain
Excerpt: as §1

[13] = system: S. aureus clinical strain 030N
Excerpt: as §1

[14] = system: S. aureus clinical strain 005S biofilm
Excerpt: as §1

[15] = system: S. aureus clinical strain 031S
Excerpt: as §1

[16] = system: S. aureus clinical strain 060S
Excerpt: as §1

[17] = system: S. aureus clinical strain 015N (MRSA) biofilm; details: clinical strain 015N biofilm, 24 h
Excerpt: as §1

[18] = system: S. aureus ATCC 33591 (MRSA) biofilm; details: ATCC 33591, 24 h
Excerpt: as §1

[19] = system: S. aureus clinical strain 009S
Excerpt: as §1

[20] = system: S. aureus clinical strain 051N (MRSA); details: 24 h
Excerpt: as §1

[21] = system: S. aureus clinical strain 031S biofilm
Excerpt: as §1

[22] = system: S. aureus clinical strain 030N biofilm
Excerpt: as §1

[23] = system: S. aureus clinical strain 043SC (MRSA) biofilm; details: clinical strain 043SC biofilm, 24 h
Excerpt: as §1

[24] = system: reference and clinical strains of staphylococci (S. aureus); details: 24 h
Excerpt: as §1

S. aureus ATCC 25923 = details: ATCC 25923, reference strain
Excerpt: as §1

[25] = system: S. aureus clinical strain 060S biofilm
Excerpt: as §1

[26] = system: S. aureus clinical strain 043SC (MRSA); details: 24 h
Excerpt: as §1

[27] = system: S. aureus ATCC 6538 biofilm; details: ATCC 6538, reference strain
[28] = system: S. aureus ATCC 6538 biofilm; details: ATCC 6538, reference strain; remark: listed apart in the source

ILRWPWWPWRRK-NH2 [Omiganan Cl^−]
45.71 µg/mL: mean MBEC (initial values) [7]
32 µg/mL: MBIC [3] | MBEC [6] | MBIC [9] | MBEC [11] | MBIC [12] | MBEC [14] | MBIC [18] | MBEC [23] | MBEC [27] | MBIC [28]
2 µg/mL: MBIC [25]
8 µg/mL: MIC (S. aureus ATCC 6538) | MIC [5] | MIC (S. aureus ATCC 12598) | MIC [20] | MIC [26]
17.46 µg/mL: mean MBIC (initial values) [7]
38.86 µg/mL: mean MBEC (corrected values) [7]
63.99 µg/mL: IC50 [1]
64 µg/mL: MBEC [3] | MBEC [8] | MBEC [9] | MBEC [12] | MBEC [17] | MBEC [18] | MBEC [22]
16 µg/mL: MIC [4] | MBIC [8] | MIC [10] | MBIC [11] | MIC [13] | MBIC [17] | MBEC [21] | MBIC [22] | MBIC [23] | MIC (S. aureus ATCC 25923) | MBEC [25]
0.5 µg/mL: MIC [19]
1 µg/mL: MIC [2] | MBIC [6] | MBIC [14] | MIC [15] | MIC [16]
14.84 µg/mL: mean MBIC (corrected values) [7]
7.96 µg/mL: mean MIC (initial values) [24]
6.77 µg/mL: mean MIC (corrected values) [24]
4 µg/mL: MIC (S. aureus ATCC 9144)

ILRWPWWPWRRK-NH2 [Omiganan TFA^−]
17.54 µg/mL: mean MBIC (initial values) [7] | mean MBIC (corrected values) [7]
32 µg/mL: MBEC [3] | MBIC [3] | MBEC [6] | MBIC [9] | MBEC [11] | MBIC [12] | MBEC [18] | MBIC [18] | MBEC [22] | MBEC [23] | MBEC [27] | MBIC [28]
128 µg/mL: MBEC [9]
8 µg/mL: MIC [5] | MIC (S. aureus ATCC 12598) | MIC [13] | MIC [26]
77.10 µg/mL: IC50 [1]
7.75 µg/mL: mean MIC (corrected values) [24] | mean MIC (initial values) [24]
16 µg/mL: MIC [4] | MBIC [8] | MIC [10] | MBIC [11] | MBEC [14] | MBIC [17] | MIC [20] | MBEC [21] | MBIC [22] | MBIC [23] | MIC (S. aureus ATCC 25923) | MBEC [25]
0.5 µg/mL: MIC [19]
4 µg/mL: MIC (S. aureus ATCC 6538) | MIC (S. aureus ATCC 9144)
2 µg/mL: MBIC [14] | MIC [16] | MBIC [25]
64 µg/mL: MBEC [8] | MBEC [12] | MBEC [17]
1 µg/mL: MIC [2] | MBIC [6] | MIC [15]
42.29 µg/mL: mean MBEC (corrected values) [7] | mean MBEC (initial values) [7]

ILRWPWWPWRRK-NH2 [Omiganan AcO^−]
1 µg/mL: MIC [2] | MBIC [6] | MBIC [14] | MIC [15] | MIC [16] | MBIC [25]
14.54 µg/mL: mean MBIC (initial values) [7]
128 µg/mL: MBEC [9]
16 µg/mL: MBIC [3] | MIC [4] | MBEC [6] | MBEC [11] | MBIC [11] | MBIC [12] | MBEC [14] | MBIC [17] | MBEC [21] | MBIC [22] | MBEC [23] | MBIC [23] | MIC (S. aureus ATCC 25923) | MBEC [25]
0.5 µg/mL: MIC [19]
32 µg/mL: MBEC [3] | MBEC [8] | MBIC [9] | MBEC [17] | MBIC [18] | MBEC [22] | MBIC [28]
6.82 µg/mL: mean MIC (initial values) [24]
4 µg/mL: MIC (S. aureus ATCC 9144)
64 µg/mL: MBEC [12] | MBEC [18] | MBEC [27]
8 µg/mL: MIC (S. aureus ATCC 6538) | MIC [5] | MIC (S. aureus ATCC 12598) | MBIC [8] | MIC [10] | MIC [13] | MIC [20] | MIC [26]
73.72 µg/mL: IC50 [1]
38.86 µg/mL: mean MBEC (initial values) [7]
